Laboratory results taken from patent publication US10570149B2, “Tricyclic heterocylic derivatives” (MERCK PATENT GMBH, priority 2016, dated 2020).

Each molecule was assayed against T1, ATR/ATRIP (Homo sapiens, UniProt Q13535) (assay: ATR/ATRIP kinase assay (TR-FRET, p53 phosphorylation)). Details: Table 1, class symbols; read-out: ATR-ATRIP IC50.
T1 construct: human ATR, full length, GenBank ID: NM_001184.3; p53: Sf21 insect cells
T1 sequence (Q13535 whole entry): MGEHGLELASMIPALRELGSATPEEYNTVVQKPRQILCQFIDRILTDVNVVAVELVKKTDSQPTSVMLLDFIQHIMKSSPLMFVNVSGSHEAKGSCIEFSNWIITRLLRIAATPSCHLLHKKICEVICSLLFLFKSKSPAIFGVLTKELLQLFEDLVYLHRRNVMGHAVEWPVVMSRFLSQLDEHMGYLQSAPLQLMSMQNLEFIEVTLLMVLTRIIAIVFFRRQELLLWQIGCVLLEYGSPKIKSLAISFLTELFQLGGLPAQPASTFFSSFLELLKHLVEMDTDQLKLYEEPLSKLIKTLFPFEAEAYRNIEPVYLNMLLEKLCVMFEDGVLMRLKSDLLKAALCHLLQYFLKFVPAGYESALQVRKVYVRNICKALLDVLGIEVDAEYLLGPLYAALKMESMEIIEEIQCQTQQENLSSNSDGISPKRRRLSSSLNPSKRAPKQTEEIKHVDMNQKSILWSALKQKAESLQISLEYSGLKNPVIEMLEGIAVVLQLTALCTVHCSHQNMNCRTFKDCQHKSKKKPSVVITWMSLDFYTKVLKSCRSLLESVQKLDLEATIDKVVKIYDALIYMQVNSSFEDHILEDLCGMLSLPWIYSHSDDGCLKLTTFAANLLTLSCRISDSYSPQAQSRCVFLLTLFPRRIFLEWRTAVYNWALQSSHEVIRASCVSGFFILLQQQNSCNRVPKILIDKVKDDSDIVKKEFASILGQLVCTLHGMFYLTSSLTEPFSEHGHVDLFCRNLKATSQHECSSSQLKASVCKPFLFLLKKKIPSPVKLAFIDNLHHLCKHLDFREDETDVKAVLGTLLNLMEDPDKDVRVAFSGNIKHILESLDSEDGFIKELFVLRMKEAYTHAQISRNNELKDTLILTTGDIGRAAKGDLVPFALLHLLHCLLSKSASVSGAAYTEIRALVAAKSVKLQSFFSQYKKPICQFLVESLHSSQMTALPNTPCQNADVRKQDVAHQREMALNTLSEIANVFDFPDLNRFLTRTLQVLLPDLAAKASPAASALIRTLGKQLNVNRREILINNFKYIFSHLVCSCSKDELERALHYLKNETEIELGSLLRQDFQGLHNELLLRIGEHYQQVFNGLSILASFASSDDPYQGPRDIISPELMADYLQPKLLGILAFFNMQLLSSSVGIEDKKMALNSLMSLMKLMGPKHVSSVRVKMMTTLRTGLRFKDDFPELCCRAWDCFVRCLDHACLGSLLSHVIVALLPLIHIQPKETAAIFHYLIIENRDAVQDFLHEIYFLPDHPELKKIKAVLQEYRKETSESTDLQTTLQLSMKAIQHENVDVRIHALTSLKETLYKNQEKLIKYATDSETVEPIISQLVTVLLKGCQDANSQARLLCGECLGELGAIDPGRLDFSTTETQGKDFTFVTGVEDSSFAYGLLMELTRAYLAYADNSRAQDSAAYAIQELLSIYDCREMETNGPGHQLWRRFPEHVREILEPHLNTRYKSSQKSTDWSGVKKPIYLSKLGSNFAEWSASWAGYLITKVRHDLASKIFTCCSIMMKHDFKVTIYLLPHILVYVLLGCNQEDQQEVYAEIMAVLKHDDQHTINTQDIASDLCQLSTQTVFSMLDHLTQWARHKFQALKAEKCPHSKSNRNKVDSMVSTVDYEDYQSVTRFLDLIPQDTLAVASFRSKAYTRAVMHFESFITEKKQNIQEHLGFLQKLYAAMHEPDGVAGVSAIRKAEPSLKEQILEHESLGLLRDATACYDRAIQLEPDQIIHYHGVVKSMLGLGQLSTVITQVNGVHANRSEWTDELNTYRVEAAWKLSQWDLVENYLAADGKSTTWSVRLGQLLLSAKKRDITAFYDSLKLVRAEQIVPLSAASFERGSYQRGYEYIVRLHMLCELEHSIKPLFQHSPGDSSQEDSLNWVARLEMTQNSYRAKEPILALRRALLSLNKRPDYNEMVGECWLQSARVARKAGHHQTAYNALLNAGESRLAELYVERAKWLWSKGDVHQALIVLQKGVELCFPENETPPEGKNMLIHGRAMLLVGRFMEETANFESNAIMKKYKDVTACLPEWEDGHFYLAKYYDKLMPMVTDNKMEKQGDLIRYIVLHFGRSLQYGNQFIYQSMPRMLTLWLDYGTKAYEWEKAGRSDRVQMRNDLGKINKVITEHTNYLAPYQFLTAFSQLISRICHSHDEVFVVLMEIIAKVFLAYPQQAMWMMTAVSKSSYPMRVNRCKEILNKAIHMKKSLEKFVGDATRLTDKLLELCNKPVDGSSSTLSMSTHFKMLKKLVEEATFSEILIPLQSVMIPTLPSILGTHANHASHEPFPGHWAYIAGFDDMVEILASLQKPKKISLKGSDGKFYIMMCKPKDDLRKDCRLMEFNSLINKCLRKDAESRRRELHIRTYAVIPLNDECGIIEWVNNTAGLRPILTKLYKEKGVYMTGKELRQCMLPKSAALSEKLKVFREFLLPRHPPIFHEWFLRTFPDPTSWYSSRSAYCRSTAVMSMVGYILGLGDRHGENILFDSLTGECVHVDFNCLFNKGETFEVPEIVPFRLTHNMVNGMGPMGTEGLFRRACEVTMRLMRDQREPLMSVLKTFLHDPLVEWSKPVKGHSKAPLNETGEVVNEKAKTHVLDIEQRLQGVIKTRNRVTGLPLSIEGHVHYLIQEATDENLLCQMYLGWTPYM
T1 sequence (Q8WXE1 whole entry partner): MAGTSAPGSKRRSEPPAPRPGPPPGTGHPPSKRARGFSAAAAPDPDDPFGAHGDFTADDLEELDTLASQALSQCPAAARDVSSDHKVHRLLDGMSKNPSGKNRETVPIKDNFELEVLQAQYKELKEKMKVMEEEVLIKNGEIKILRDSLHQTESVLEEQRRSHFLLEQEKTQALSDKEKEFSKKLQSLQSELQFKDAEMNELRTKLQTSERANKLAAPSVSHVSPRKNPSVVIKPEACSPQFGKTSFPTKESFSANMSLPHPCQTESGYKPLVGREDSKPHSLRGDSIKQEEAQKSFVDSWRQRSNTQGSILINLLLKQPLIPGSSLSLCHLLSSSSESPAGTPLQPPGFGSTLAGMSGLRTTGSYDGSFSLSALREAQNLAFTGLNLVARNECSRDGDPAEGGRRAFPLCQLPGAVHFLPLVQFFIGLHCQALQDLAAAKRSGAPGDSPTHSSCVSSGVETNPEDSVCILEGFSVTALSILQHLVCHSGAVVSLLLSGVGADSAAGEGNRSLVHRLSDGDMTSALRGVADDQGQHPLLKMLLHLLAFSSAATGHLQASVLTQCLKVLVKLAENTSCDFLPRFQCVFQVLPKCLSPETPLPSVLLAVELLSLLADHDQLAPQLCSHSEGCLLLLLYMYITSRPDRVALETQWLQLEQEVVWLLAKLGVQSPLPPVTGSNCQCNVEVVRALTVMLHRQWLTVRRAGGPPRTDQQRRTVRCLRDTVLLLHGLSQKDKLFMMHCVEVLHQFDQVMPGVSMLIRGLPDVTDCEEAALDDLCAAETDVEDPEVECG
Format: biochemical
Experimental: ATR/ATRIP Kinase Assay—Measurement of ATR/ATRIP Inhibition
The IC50 value was determined by an ATR/ATRIP enzymatic assay. The assay comprises two steps: the enzymatic reaction and the detection step. First, a mixture of ATR/ATRIP protein (Ataxia Telangiectasia and Rad3-related protein/ATR interacting protein), the compound in question at different concentrations, p53 as substrate protein and adenosine triphosphate (ATP) are incubated in assay buffer. ATR phosphorylates p53 at Ser15 and other residues. The amount of phosphorylated p53 is then detected using specific antibodies and the TR-FRET assay technology.
In detail: The ATR/ATRIP enzymatic assay is performed as a TR-FRET-(HTRF™, Cisbio Bioassays) based 384-well assay. In a first step, purified human recombinant ATR/ATRIP (human ATR, full length, GenBank ID: NM_001184.3, and human ATRIP, full length, GenBank ID AF451323.1, co-expressed in a mammalian cell line) is incubated in assay buffer for 15 minutes at 22° C. with test compound at different concentrations or without test compound (as a negative control). The assay buffer contains 25 mM HEPES pH 8.0, 10 mM Mg(CH3COO)2, 1 mM MnCl2, 0.1% BSA, 0.01% Brij® 35, and 5 mM dithiothreitol (DTT). […] Then, in a second step, purified human recombinant cmyc-tagged p53 (human p53, full length, GenBank ID: BC003596, expressed in Sf21 insect cells) and ATP are added and the reaction mixture is incubated for 25-35 minutes, typically 25 minutes, at 22° C. The pharmacologically relevant assay volume is 5 μl. The final concentrations in the assay during incubation of the reaction mixture are 0.3-0.5 nM, typically 0.3 nM, ATR/ATRIP, 50 nM p53, and 0.5 μM ATP. The enzymatic reaction is stopped by the addition of EDTA. […] Following signal development for 2 h the plates are analyzed in an EnVision (PerkinElmer) microplate reader using the TRF mode with laser excitation. […] Data are processed employing the Genedata Screener software. In particular, IC50 values are determined in the usual manner by fitting a dose-response curve to the data points using nonlinear regression analysis.
With `C[C@@H]1COC[C@H]2COc3c(nc(C(=O)Nc4ccnnc4)nc3C(C)(C)S(C)(=O)=O)N21` [A57, (4bS,6R)-1-(1-methanesulfonyl-1-methyl-ethyl)-5-methyl-5,6,8a,9-tetrahydro-8H-7,10-dioxa-2,4,4b-triaza-phenanthrene-3-carboxylic Acid pyridazin-4-ylamide] the IC50 was 500 to 30000 nM. Work on `C[C@@H]1COC[C@H]2COc3c(nc(C(=O)N4CC[C@@H](O)C4)nc3C(C)(C)S(C)(=O)=O)N21` [A49, ((R)-3-hydroxy-pyrrolidin-1-yl)-[(4bS,6R)-1-(1-methanesulfonyl-1-methyl-ethyl)-5-methyl-5,6,8a,9-tetrahydro-8H-7,10-dioxa-2,4,4b-triaza-phenanthren-3-yl]-methanone] yielded an IC50 of 500 to 30000 nM. In the case of `C[C@@H]1COC[C@H]2COc3c(nc(C(=O)N4CC[C@H](O)C4)nc3C(C)(C)S(C)(=O)=O)N21` [A48, ((S)-3-hydroxy-pyrrolidin-1-yl)-[(4bS,6R)-1-(1-methanesulfonyl-1-methyl-ethyl)-5-methyl-5,6,8a,9-tetrahydro-8H-7,10-dioxa-2,4,4b-triaza-phenanthren-3-yl]-methanone], the IC50 is reported as 500 to 30000 nM. With `C[C@@H]1COC[C@H]2COc3c(nc(-c4cccc(CO)c4)nc3C(C)(C)S(C)(=O)=O)N21` [A41, {3-[(5R,8aS)-1-(1-methanesulfonyl-1-methyl-ethyl)-5-methyl-5,6,8a,9-tetrahydro-8H-7,10-dioxa-2,4,4b-triaza-phenanthren-3-yl]-phenyl}-methanol] the IC50 was less than 1 nM. With `C[C@@H]1COC[C@H]2COc3c(nc(-n4cc(C#N)c5ccccc54)nc3C(C)(C)S(C)(=O)=O)N21` [A70, 1-[(5R,8aS)-1-(1-methanesulfonyl-1-methyl-ethyl)-5-methyl-5,6,8a,9-tetrahydro-8H-7,10-dioxa-2,4,4b-triaza-phenanthren-3-yl]-1H-indole-3-carbonitrile] the IC50 was 10 to 100 nM. For `CNc1nc2ccccc2n1-c1nc2c(c(C(C)(C)S(C)(=O)=O)n1)OC[C@H]1COC[C@H](C)N21` [A14, {1-[(5S,8aR)-1-(1-Methanesulfonyl-1-methyl-ethyl)-5-methyl-5,6,8a,9-tetrahydro-8H-7,10-dioxa-2,4,4b-triaza-phenanthren-3-yl]-1H-benzimidazol-2-yl}-methyl-amine], the IC50 was 10 to 100 nM. `C[C@@H]1COC[C@H]2COc3c(nc(-c4ccc(CCN)cc4)nc3C(C)(C)S(C)(=O)=O)N21` [A45, 2-{4-[(4bS,6R)-1-(1-methanesulfonyl-1-methyl-ethyl)-5-methyl-5,6,8a,9-tetrahydro-8H-7,10-dioxa-2,4,4b-triaza-phenanthren-3-yl]-phenyl}-ethylamine] was tested, and the IC50 was 10 to 100 nM. With `CNCc1c[nH]c2ncc(F)c(-c3nc4c(c(C(C)(C)O)n3)OC[C@@H]3COC[C@@H](C)N43)c12` [A5, 2-[(5R,8aS)-3-(5-Fluoro-3-methylaminomethyl-1H-pyrrolo[2,3-b]pyridin-4-yl)-5-methyl-5,6,8a,9-tetrahydro-8H-7,10-dioxa-2,4,4b-triaza-phenanthren-1-yl]-propan-2-ol] the IC50 was 10 to 100 nM. `C[C@H](O)CNC(=O)c1nc2c(c(C(C)(C)S(C)(=O)=O)n1)OC[C@@H]1COC[C@@H](C)N21` [A54, (4bS,6R)-1-(1-methanesulfonyl-1-methyl-ethyl)-5-methyl-5,6,8a,9-tetrahydro-8H-7,10-dioxa-2,4,4b-triaza-phenanthrene-3-carboxylic Acid ((S)-2-hydroxy-propyl)-amide] showed an IC50 of 500 to 30000 nM. `CC(CO)NC(=O)c1nc2c(c(C(C)(C)S(C)(=O)=O)n1)OC[C@@H]1COC[C@@H](C)N21` (stereo partly drawn) [A56, (4bS,6R)-1-(1-methanesulfonyl-1-methyl-ethyl)-5-methyl-5,6,8a,9-tetrahydro-8H-7,10-dioxa-2,4,4b-triaza-phenanthrene-3-carboxylic Acid (2-hydroxy-1-methyl-ethyl)-amide] was tested, and the IC50 was 500 to 30000 nM. In the case of `C[C@@H]1COC[C@H]2COc3c(nc(-c4ccc5cc(N)ncc5c4)nc3C(C)(C)S(C)(=O)=O)N21` [A66, 7-[(5R,8aS)-1-(1-methanesulfonyl-1-methyl-ethyl)-5-methyl-5,6,8a,9-tetrahydro-8H-7,10-dioxa-2,4,4b-triaza-phenanthren-3-yl]-isoquinolin-3-ylamine], the IC50 is reported as 10 to 100 nM.
